Assays:
[1] = target: T1, AXL (Homo sapiens, UniProt P30530); test: TR-FRET kinase activity assay, AXL; format: biochemical; conditions: ATP at Km, 60 minutes
T1 sequence (P30530 26-894): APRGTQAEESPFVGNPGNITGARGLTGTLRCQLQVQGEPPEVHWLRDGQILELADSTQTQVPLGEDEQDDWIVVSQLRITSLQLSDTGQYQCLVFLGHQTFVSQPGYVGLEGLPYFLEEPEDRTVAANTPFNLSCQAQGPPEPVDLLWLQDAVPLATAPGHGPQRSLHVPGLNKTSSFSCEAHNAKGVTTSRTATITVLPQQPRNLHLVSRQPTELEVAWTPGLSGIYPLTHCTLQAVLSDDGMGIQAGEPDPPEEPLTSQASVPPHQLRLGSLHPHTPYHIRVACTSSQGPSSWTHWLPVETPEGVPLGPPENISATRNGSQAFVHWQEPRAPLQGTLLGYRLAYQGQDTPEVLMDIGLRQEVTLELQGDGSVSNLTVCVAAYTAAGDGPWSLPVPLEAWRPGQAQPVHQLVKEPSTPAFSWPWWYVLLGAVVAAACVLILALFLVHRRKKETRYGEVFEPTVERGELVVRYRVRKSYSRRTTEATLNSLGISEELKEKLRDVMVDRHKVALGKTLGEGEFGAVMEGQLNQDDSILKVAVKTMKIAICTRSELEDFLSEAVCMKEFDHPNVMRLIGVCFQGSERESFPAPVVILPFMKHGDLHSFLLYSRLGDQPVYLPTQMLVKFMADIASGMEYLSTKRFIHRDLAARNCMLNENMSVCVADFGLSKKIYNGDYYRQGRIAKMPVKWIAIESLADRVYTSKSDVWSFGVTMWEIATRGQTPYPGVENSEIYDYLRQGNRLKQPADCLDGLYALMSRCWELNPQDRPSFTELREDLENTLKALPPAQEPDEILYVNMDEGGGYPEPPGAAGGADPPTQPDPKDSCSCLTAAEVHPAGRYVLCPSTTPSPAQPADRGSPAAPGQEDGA
How it was run: (§1)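 Compounds were tested against each kinase with ATP set at its own Km and a labelled tyrosine peptide substrate. Following one hour at room temperature in buffer containing 10 mM MgCl2 and 1 mM DTT, phosphorylated product was detected by Europium antibody TR-FRET after EDTA quench, and IC50 values were calculated.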

[2] = target: T2, FLT3 (Homo sapiens, UniProt P36888); test: TR-FRET kinase activity assay, FLT3; format: biochemical; conditions: ATP at Km, 60 minutes
T2 sequence (P36888 27-993): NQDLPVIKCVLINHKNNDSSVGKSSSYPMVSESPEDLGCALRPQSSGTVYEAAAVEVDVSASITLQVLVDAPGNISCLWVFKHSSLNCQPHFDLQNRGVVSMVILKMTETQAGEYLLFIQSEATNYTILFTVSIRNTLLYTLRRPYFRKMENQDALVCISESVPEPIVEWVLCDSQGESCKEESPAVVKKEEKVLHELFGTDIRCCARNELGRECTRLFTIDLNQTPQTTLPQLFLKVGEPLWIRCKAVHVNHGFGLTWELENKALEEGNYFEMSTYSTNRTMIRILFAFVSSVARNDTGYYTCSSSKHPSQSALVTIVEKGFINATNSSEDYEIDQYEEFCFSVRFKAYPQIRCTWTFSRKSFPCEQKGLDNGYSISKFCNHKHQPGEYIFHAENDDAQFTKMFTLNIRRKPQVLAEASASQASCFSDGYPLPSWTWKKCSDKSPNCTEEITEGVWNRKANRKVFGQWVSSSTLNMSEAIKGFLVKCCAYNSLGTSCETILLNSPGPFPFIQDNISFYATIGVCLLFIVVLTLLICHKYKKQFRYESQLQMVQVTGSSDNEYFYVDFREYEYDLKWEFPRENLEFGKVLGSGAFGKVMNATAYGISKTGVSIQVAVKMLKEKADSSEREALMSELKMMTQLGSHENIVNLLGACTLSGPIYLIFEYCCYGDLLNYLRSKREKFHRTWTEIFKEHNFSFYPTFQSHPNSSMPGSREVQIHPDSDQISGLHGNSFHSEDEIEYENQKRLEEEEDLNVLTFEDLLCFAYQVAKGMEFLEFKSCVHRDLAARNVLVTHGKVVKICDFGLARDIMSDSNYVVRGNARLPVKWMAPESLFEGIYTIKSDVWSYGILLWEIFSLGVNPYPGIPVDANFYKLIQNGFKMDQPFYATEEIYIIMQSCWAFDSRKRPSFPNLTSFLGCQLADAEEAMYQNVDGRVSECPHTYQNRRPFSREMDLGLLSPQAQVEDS
How it was run: as §1

SMILES: CC(CC1COC1)Nc1ncc2c(-c3cnn(C4COC4)c3)cc([C@H]3CC[C@H](O)CC3)n2n1 (mixture of isomers) [Compound 447]
- IC50 [1]: 1 to 10 µM
- IC50 [2]: 1 to 10 µM

SMILES: CC[C@H](C)Nc1ncc2c(-c3ccc(CN4CCN(C)CC4)cc3)cc([C@H]3CC[C@](C)(O)CC3)n2n1 (relative stereo) [Compound 132, (trans)-4-(2-((S)-sec-butylamino)-5-(4-((4-methylpiperazin-1-yl)methyl)phenyl)pyrrolo[2,1-f][1,2,4]triazin-7-yl)-1-methylcyclohexanol]
- IC50 [1]: ≤ 0.1 µM
- IC50 [2]: ≤ 0.1 µM

SMILES: COC[C@H](C)Nc1ncc2c(-c3cnn(C4COC4)c3)cc([C@H]3CC[C@](C)(O)CC3)n2n1 (single isomer, unassigned) [Compound 452]
- IC50 [1]: ≤ 0.1 µM
- IC50 [2]: 0.1 to 1 µM

SMILES: COC[C@H](C)Nc1ncc2c(-c3cnn(C4COC4)c3)cc([C@H]3CC[C@@](C)(O)CC3)n2n1 (single isomer, unassigned) [Compound 453]
- IC50 [1]: ≤ 0.1 µM
- IC50 [2]: 0.1 to 1 µM

SMILES: CC[C@H](C)Nc1ncc2c(-c3ccc(CN4CCN(C)CC4)cc3)cc(C3CCC(C)(O)CC3)n2n1 (stereo in doubt) [Compound 131, (cis)-4-(2-((S)-sec-butylamino)-5-(4-((4-methylpiperazin-1-yl)methyl)phenyl)pyrrolo[2,1-f][1,2,4]triazin-7-yl)-1-methylcyclohexanol]
- IC50 [1]: ≤ 0.1 µM
- IC50 [2]: ≤ 0.1 µM

SMILES: CCC1(Nc2ncc3c(-c4ccc(CN5CCN(C)CC5)cc4)cc([C@H]4CC[C@H](O)CC4)n3n2)CCC1 [Compound 126]
- IC50 [1]: 0.1 to 1 µM
- IC50 [2]: 1 to 10 µM

SMILES: CCCCC[C@H](C)Nc1ncc2c([C@H]3CC[C@@H](C(=O)N4CCN(C)CC4)CC3)cc([C@H]3CC[C@H](O)CC3)n2n1 [Compound 127]
- IC50 [1]: ≤ 0.1 µM
- IC50 [2]: 0.1 to 1 µM

SMILES: CC[C@H](C)Nc1ncc2c(C3=CCOCC3)cc([C@H]3CC[C@H](O)CC3)n2n1 [Compound 128]
- IC50 [1]: ≤ 0.1 µM
- IC50 [2]: ≤ 0.1 µM

SMILES: CC[C@H](C)Nc1ncc2c(C3CCOCC3)cc([C@H]3CC[C@H](O)CC3)n2n1 [Compound 129, (trans)-4-(2-((S)-sec-butylamino)-5-(tetrahydro-2H-pyran-4-yl)pyrrolo[2,1-f][1,2,4]triazin-7-yl)cyclohexanol]
- IC50 [1]: 0.1 to 1 µM
- IC50 [2]: 1 to 10 µM

SMILES: CC[C@H](C)Nc1ncc2c(C3=CCNCC3)cc([C@H]3CC[C@H](O)CC3)n2n1 [Compound 130]
- IC50 [1]: ≤ 0.1 µM
- IC50 [2]: ≤ 0.1 µM

SMILES: COC[C@H](C)Nc1ncc2c(-c3ccc(CC(=O)O)cc3)cc([C@H]3CC[C@H](O)CC3)n2n1 [Compound 133]
- IC50 [1]: ≤ 0.1 µM
- IC50 [2]: 0.1 to 1 µM

SMILES: COC[C@H](C)Nc1ncc2c(-c3ccc(-c4nn[nH]n4)cc3)cc([C@H]3CC[C@H](O)CC3)n2n1 [Compound 134]
- IC50 [1]: ≤ 0.1 µM
- IC50 [2]: 1 to 10 µM

SMILES: COC[C@H](C)Nc1ncc2c(-c3ccnc(N4CCOCC4=O)c3)cc([C@H]3CC[C@H](O)CC3)n2n1 [Compound 423]
- IC50 [1]: ≤ 0.1 µM
- IC50 [2]: 0.1 to 1 µM

SMILES: CNS(=O)(=O)c1ccc(-c2cc([C@H]3CC[C@H](O)CC3)n3nc(N[C@@H](C)COC(F)F)ncc23)cn1 [Compound 424]
- IC50 [1]: ≤ 0.1 µM
- IC50 [2]: 0.1 to 1 µM

SMILES: COC[C@H](C)Nc1ncc2c(C3=CCN(C(=O)OC(C)(C)C)CC3)cc([C@H]3CC[C@H](O)CC3)n2n1 [Compound 425]
- IC50 [1]: ≤ 0.1 µM
- IC50 [2]: 0.1 to 1 µM

SMILES: COC[C@H](C)Nc1ncc2c(-c3ccnc(N4CC5(COC5)C4)c3)cc([C@H]3CC[C@H](O)CC3)n2n1 [Compound 426]
- IC50 [1]: ≤ 0.1 µM
- IC50 [2]: 0.1 to 1 µM

SMILES: COC[C@H](C)Nc1ncc2c(-c3ccnc(N4CCC5(CC4)COC5)c3)cc([C@H]3CC[C@H](O)CC3)n2n1 [Compound 427]
- IC50 [1]: ≤ 0.1 µM
- IC50 [2]: 0.1 to 1 µM

SMILES: COC[C@H](C)Nc1ncc2c(-c3ccnc(N4CCC5(CCO5)CC4)c3)cc([C@H]3CC[C@H](O)CC3)n2n1 [Compound 430]
- IC50 [1]: ≤ 0.1 µM
- IC50 [2]: 0.1 to 1 µM

SMILES: COC[C@H](C)Nc1ncc2c(-c3ccnc(NC4CCOCC4)c3)cc([C@H]3CC[C@H](O)CC3)n2n1 [Compound 431]
- IC50 [1]: ≤ 0.1 µM
- IC50 [2]: 0.1 to 1 µM

SMILES: CCC(=O)N1CCN(c2cc(-c3cc([C@H]4CC[C@H](O)CC4)n4nc(N[C@@H](C)COC)ncc34)ccn2)CC1 [Compound 432]
- IC50 [1]: ≤ 0.1 µM
- IC50 [2]: 0.1 to 1 µM

SMILES: COC[C@H](C)Nc1ncc2c(-c3ccnc(N4CCNCC4)c3)cc([C@H]3CC[C@H](O)CC3)n2n1 [Compound 434]
- IC50 [1]: ≤ 0.1 µM
- IC50 [2]: 0.1 to 1 µM

SMILES: C[C@@H](COC(F)F)Nc1ncc2c(-c3cnn(CCS(C)(=O)=O)c3)cc([C@H]3CC[C@H](O)CC3)n2n1 [Compound 436]
- IC50 [1]: ≤ 0.1 µM
- IC50 [2]: 0.1 to 1 µM

SMILES: C[C@@H](COC(F)F)Nc1ncc2c(-c3cnn(CCC#N)c3)cc([C@H]3CC[C@H](O)CC3)n2n1 [Compound 437]
- IC50 [1]: ≤ 0.1 µM
- IC50 [2]: ≤ 0.1 µM

SMILES: COC[C@H](C)Nc1ncc2c(-c3ccnc(N4CCOC4=O)c3)cc([C@H]3CC[C@H](O)CC3)n2n1 [Compound 438]
- IC50 [1]: ≤ 0.1 µM
- IC50 [2]: 1 to 10 µM

SMILES: COC[C@H](C)Nc1ncc2c(-c3cnn(CC4CCO4)c3)cc([C@H]3CC[C@H](O)CC3)n2n1 (stereo partly drawn) [Compound 439]
- IC50 [1]: ≤ 0.1 µM
- IC50 [2]: 0.1 to 1 µM

SMILES: COC[C@H](C)Nc1ncc2c(-c3cnn(C(C)(C)c4nnc(C)o4)c3)cc([C@H]3CC[C@H](O)CC3)n2n1 [Compound 440]
- IC50 [1]: ≤ 0.1 µM
- IC50 [2]: 1 to 10 µM

SMILES: C[C@@H](CC(F)(F)F)Nc1ncc2c(C3=CCNCC3)cc([C@H]3CC[C@H](O)CC3)n2n1 [Compound 442]
- IC50 [1]: ≤ 0.1 µM
- IC50 [2]: ≤ 0.1 µM

SMILES: COC[C@H](C)Nc1ncc2c(C3=CCNCC3)cc([C@H]3CC[C@H](O)CC3)n2n1 [Compound 443]
- IC50 [1]: ≤ 0.1 µM
- IC50 [2]: 1 to 10 µM

SMILES: COC[C@H](C)Nc1ncc2c(-c3csc(C(=O)N4CCOCC4)c3)cc([C@H]3CC[C@H](O)CC3)n2n1 [Compound 444]
- IC50 [1]: ≤ 0.1 µM
- IC50 [2]: 0.1 to 1 µM

SMILES: COC[C@H](C)Nc1ncc2c(-c3ccnc(N4C[C@H]5CC[C@@H](C4)O5)c3)cc([C@H]3CC[C@H](O)CC3)n2n1 [Compound 445]
- IC50 [1]: ≤ 0.1 µM
- IC50 [2]: 0.1 to 1 µM

SMILES: C[C@@H](CC(F)(F)F)Nc1ncc2c([C@H]3CC[C@@H](C(=O)N4CCOCC4)CC3)cc([C@H]3CC[C@H](O)CC3)n2n1 [Compound 446]
- IC50 [1]: ≤ 0.1 µM
- IC50 [2]: ≤ 0.1 µM

SMILES: COC[C@H](C)Nc1ncc2c(C#CC(C)(C)C(=O)N3CCOCC3)cc([C@H]3CC[C@H](O)CC3)n2n1 [Compound 449]
- IC50 [1]: 0.1 to 1 µM
- IC50 [2]: 1 to 10 µM

SMILES: COC[C@H](C)Nc1ncc2c(-c3cnn(C(C)(C)C(=O)N4CCC(C)(O)CC4)c3)cc([C@H]3CC[C@H](O)CC3)n2n1 [Compound 450]
- IC50 [1]: ≤ 0.1 µM
- IC50 [2]: 1 to 10 µM

SMILES: COC[C@H](C)Nc1ncc2c(-c3cnn(C(C)(C)C(=O)N4CCC(C)(C#N)CC4)c3)cc([C@H]3CC[C@H](O)CC3)n2n1 [Compound 451]
- IC50 [1]: ≤ 0.1 µM
- IC50 [2]: 0.1 to 1 µM

SMILES: C[C@H](CC(F)(F)F)Nc1ncc2c(C3=C[C@H]4CC[C@@H](C3)N4C(=O)OC(C)(C)C)cc([C@H]3CC[C@H](O)CC3)n2n1 [Compound 456]
- IC50 [1]: ≤ 0.1 µM
- IC50 [2]: ≤ 0.1 µM

SMILES: COC[C@H](C)Nc1ncc2c(-c3cnn(C(C)(C)CN4CCOCC4)c3)cc([C@H]3CC[C@H](O)CC3)n2n1 [Compound 459]
- IC50 [1]: ≤ 0.1 µM
- IC50 [2]: 1 to 10 µM
